Experimental data taken from the NIST ThermoML archive (doi:10.1016/j.jct.2005.03.016).

Assay: xn = mol fraction of the nth substance listed
Settings: Liquid, Vibrating tube method

CC1CCCCC1 [methylcyclohexane] + CCO
mass density [kg/m3]
Settings	100 kPa	5000 kPa	10000 kPa	15000 kPa	20000 kPa	25000 kPa	30000 kPa	35000 kPa	40000 kPa	45000 kPa
313.15 K, x2 = 0.5	–	–	–	–	–	–	–	–	–	790.2
313.15 K, x2 = 0.625	–	–	–	–	–	–	–	–	–	792.6
313.15 K, x2 = 0.75	–	–	–	–	–	–	–	–	–	795.8
313.15 K, x2 = 0.875	–	–	–	–	–	–	–	–	–	800.4
323.15 K, x2 = 0	742.9	747.7	752.5	756.9	761.1	765.1	769	772.6	776.1	779.5
323.15 K, x2 = 0.052	742	746.9	751.7	756.3	760.5	764.5	768.4	772.1	775.6	779.1
323.15 K, x2 = 0.125	741.9	746.8	751.7	756.2	760.5	764.6	768.5	772.2	775.7	779.2
323.15 K, x2 = 0.25	742.4	747.4	752.3	756.8	761.2	765.3	769.2	772.9	776.5	780
323.15 K, x2 = 0.375	743.4	748.5	753.4	758	762.4	766.5	770.4	774.2	777.8	781.2
323.15 K, x2 = 0.5	745	750.1	755	759.6	764	768.2	772.1	775.9	779.5	783
323.15 K, x2 = 0.625	747.4	752.4	757.4	762	766.4	770.5	774.5	778.2	781.9	785.3
323.15 K, x2 = 0.75	750.7	755.7	760.6	765.2	769.6	773.7	777.7	781.5	785.1	788.6
323.15 K, x2 = 0.875	755.6	760.6	765.5	770.1	774.4	778.5	782.4	786.2	789.8	793.3
333.15 K, x2 = 0	733.9	739	744.1	748.8	753.3	757.5	761.5	765.4	769	772.5
333.15 K, x2 = 0.052	732.8	738.1	743.2	748	752.5	756.8	760.9	764.7	768.5	772
333.15 K, x2 = 0.125	732.4	737.8	742.9	747.8	752.3	756.6	760.7	764.6	768.4	771.9
333.15 K, x2 = 0.25	732.7	738.1	743.3	748.2	752.8	757.1	761.3	765.2	769	772.6
333.15 K, x2 = 0.375	733.7	739.1	744.4	749.3	753.9	758.3	762.4	766.4	770.2	773.8
333.15 K, x2 = 0.5	735.3	740.7	746	750.9	755.6	759.9	764.1	768.1	771.9	775.5
333.15 K, x2 = 0.625	737.6	743	748.3	753.3	757.9	762.3	766.4	770.4	774.2	777.9
333.15 K, x2 = 0.75	741	746.4	751.6	756.6	761.2	765.5	769.7	773.7	777.5	781.1
333.15 K, x2 = 0.875	746	751.4	756.6	761.5	766	770.4	774.5	778.4	782.2	785.9
343.15 K, x2 = 0	724.8	730.4	735.8	740.8	745.6	750	754.2	758.2	762.1	765.7
343.15 K, x2 = 0.052	723.4	729.1	734.6	739.7	744.5	749	753.3	757.4	761.3	765
343.15 K, x2 = 0.125	722.8	728.6	734.1	739.3	744.2	748.7	753	757.1	761	764.8
343.15 K, x2 = 0.25	722.9	728.7	734.3	739.6	744.5	749.1	753.5	757.6	761.5	765.3
343.15 K, x2 = 0.375	723.8	729.6	735.3	740.5	745.5	750.1	754.5	758.6	762.6	766.4
343.15 K, x2 = 0.5	725.3	731.2	736.9	742.1	747.1	751.7	756.1	760.3	764.3	768.1
343.15 K, x2 = 0.625	727.6	733.5	739.2	744.4	749.4	754	758.4	762.6	766.6	770.4
343.15 K, x2 = 0.75	731.1	736.9	742.5	747.8	752.7	757.3	761.7	765.9	769.8	773.6
343.15 K, x2 = 0.875	736.3	742.1	747.6	752.8	757.7	762.3	766.6	770.8	774.7	778.4
353.15 K, x2 = 0	715.7	721.7	727.4	732.8	737.8	742.5	747	751.2	755.2	759
353.15 K, x2 = 0.052	–	720.2	726	731.5	736.6	741.3	745.8	750.1	754.2	758
353.15 K, x2 = 0.125	–	719.3	725.3	730.8	736	740.8	745.3	749.6	753.7	757.7
353.15 K, x2 = 0.25	–	719.2	725.2	730.8	736	740.9	745.5	749.9	754	758
353.15 K, x2 = 0.375	–	719.9	726	731.7	736.9	741.8	746.4	750.8	755	759
353.15 K, x2 = 0.5	–	721.4	727.5	733.1	738.4	743.4	748	752.4	756.6	760.6
353.15 K, x2 = 0.625	–	723.7	729.8	735.4	740.7	745.6	750.3	754.6	758.8	762.8
353.15 K, x2 = 0.75	–	727.1	733.2	738.8	744	748.9	753.6	757.9	762.1	766.1
353.15 K, x2 = 0.875	–	732.5	738.4	743.9	749.1	753.9	758.5	762.9	767	771
